Laboratory results published in patent US12649712B2, “Indene compounds, pharmaceutical compositions thereof, and their therapeutic applications” (NucMito Pharmaceuticals Co. Ltd., priority 2020, dated 2026).

How the values were obtained:
[1] = tested on: alpha-smooth muscle actin (α-SMA); experiment: Inhibition of TGF-β induced expression of alpha-smooth muscle actin (α-SMA) in CFSC cells, western blot; format: cell-based; details: compound at 10 μM, TGF-β (10 ng/mL), 24 hours, decrease in band intensity vs TGF-β only
Outline: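 Cells at 60–70% confluence in serum-free DMEM received compound at 10 μM plus TGF-β (10 ng/mL) for 24 h at 37 °C. NP-40 lysates were run on western blot for α-SMA and β-actin, with ECL bands quantified. % inhibition = decrease in band intensity versus TGF-β alone.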

[2] = tested on: CCl4-induced liver fibrosis in C57BL/6 mice; experiment: Antifibrotic activity in CCl4-induced liver fibrosis, Sirius red staining of liver samples; format: in vivo; details: C57/BL6 mice, oral once daily for 2 weeks; malotilate 60 mg/kg, A11 and B9 50 mg/kg
Protocol: CCl4-induced liver fibrosis was described previously. Henderson et al., Proc. Nat'l. Acad. Sci. U.S.A. 2006, 103, 5060-5; Henderson et al., Nat. Med. 2013, 19, 1617-24. Briefly, eight-week-old C57BL/6 mice were randomly divided into two groups: a control group and a CCl4 administered group. Liver fibrosis was induced by intraperitoneal administration of 25% CCl4 at 0.5 mL/kg body weight (diluted in corn oil) twice weekly for 6 weeks. Dosing was started during the last 2 weeks of CCl4 administration. Malotilate (Mal) as a reference and compounds A11, A23, and B9 were each freshly prepared by dissolving in PEG 400 and orally administered in a dosing volume of 10 mL/kg. The mice were stratified (n=6-8 per group) based on their body weights and dosed once daily for 2 weeks with a vehicle, malotilate (60 mg/kg), compound A11 (50 mg/kg), compound A23 (50 mg/kg), or compound B9 (50 mg/kg). Their body weights were monitored daily during the intervention period. At the terminal of treatment, the mice were sacrificed and their liver samples were processed as below.
The mice liver samples were all taken at the same position of each large lobe, and then post-fixed in a 10% buffered formaldehyde for 48 h. The fixed livers were embedded in paraffin for microtome slicing into 5-μm-thick sections. The tissue sections were mounted onto MS-coated glass slides, deparaffinized, and stained with picric acid-Sirius red. Stained sections were photographed using a microscope with a digital camera. Images were taken at a full resolution with a single image dimension set at 1,360×1,024 pixels.
Total RNA was extracted from the liver using an MOLPURE® TRIEASY™ Plus Total RNA Kit (Yeasen, Shanghai, China). Total RNA (5 μg) was reverse-transcribed using 1st strand cDNA Synthesis SuperMix for qPCR (gDNA digester plus) Kit (Yeasen, Shanghai, China). […]

SMILES	inhibition at 10 µM [1]	Sirius red pathological staining of liver samples: effect on fibrosis induced by CCl4 [2]
CC1=C(CC(=O)O)c2cc(F)ccc2/C1=C\c1ccc(Oc2ccc(F)cc2)cc1 [Compound A11, 2-[(1Z)-5-Fluoro-1-{[4-(4-fluorophenoxy)phenyl]methylidene}-2-methyl-1H-inden-3-yl]acetic acid]	80 to 90%	reversed the fibrosis induced by CCl4
CC1=C(CC(=O)O)c2cc(F)ccc2/C1=C\c1ccc(C(C)C)cc1 [Compound B9, (Z)-2-(5-fluoro-2-methyl-1-(4-isopropylbenzylidene)-1H-inden-3-yl)acetic acid]	> 90%	reversed the fibrosis induced by CCl4
COc1ccc(Oc2cccc(/C=C3/C(C)=C(CC(=O)O)c4cc(F)ccc43)c2)cc1 [Compound D22, 2-[(1Z)-5-Fluoro-2-methyl-1-({3-[4-methoxyphenoxy]phenyl}methylidene)-1H-inden-3-yl]acetic acid]	> 90%	
CC1=C(CC(=O)O)c2cc(F)ccc2/C1=C\c1ccc(F)c(Oc2ccccc2)c1 [Compound D23, 2-[(1Z)-5-Fluoro-1-(4-fluoro-3-(phenoxy)benzylidene)-2-methyl-1H-inden-3-yl]-acetic acid]	> 90%	
CC1=C(CC(=O)O)c2cc(F)ccc2/C1=C\c1cccc(Oc2ccc(Cl)cc2)c1 [Compound D25, 2-[(1Z)-5-Fluoro-2-methyl-1-({3-[4-chlorophenoxy]phenyl}methylidene)-1H-inden-3-yl]acetic acid]	> 90%	
CC1=C(CC(=O)O)c2cc(F)ccc2/C1=C\c1cccc(Oc2ccc(C(F)(F)F)cc2)c1 [Compound D26, 2-[(1Z)-5-Fluoro-2-methyl-1-({3-[4-trifluoromethylphenoxy]phenyl}-methylidene)-1H-inden-3-yl]acetic acid]	> 90%	
CC1=C(CC(=O)O)c2cc(F)ccc2/C1=C\c1cccc(Oc2cccc(C(F)(F)F)c2)c1 [Compound D27, 2-[(1Z)-5-Fluoro-2-methyl-1-({3-[3-trifluoromethylphenoxy]phenyl}-methylidene)-1H-inden-3-yl]acetic acid]	> 90%	
CC1=C(CC(=O)O)c2cc(F)ccc2/C1=C/c1ccc(Oc2ccc(F)c(F)c2)cc1 [Compound E1, 2-[(1E)-5-Fluoro-2-methyl-1-({4-[3,4-difluorophenoxy]phenyl}methylidene)-1H-inden-3-yl]acetic acid]	> 90%	
CC1=C(CC(=O)O)c2cc(F)ccc2/C1=C/c1ccc(Oc2ccc(F)cc2)cc1 [Compound E2, 2-[(1E)-5-Fluoro-2-methyl-1-({4-[4-fluorophenoxy]phenyl}methylidene)-1H-inden-3-yl]acetic acid]	> 90%	
CC1=C(CC(=O)O)c2cc(F)ccc2/C1=C/c1ccc(Oc2ccccc2)cc1 [Compound E3, 2-[(1E)-5-Fluoro-2-methyl-1-[(4-phenoxyphenyl)methylidene]-1H-inden-3-yl]acetic acid]	> 90%	
CC1=C(CC(=O)O)c2cc(F)cc(F)c2/C1=C/c1ccc(Oc2ccc(F)cc2)cc1 [Compound E4, 2-[(1E)-5,7-Difluoro-2-methyl-1-({4-[4-fluorophenoxy]phenyl}methylidene)-1H-inden-3-yl]acetic acid]	> 90%	
CC1=C(CC(=O)O)c2cc(F)cc(F)c2/C1=C/c1cccc(Oc2ccccc2)c1 [Compound E6, 2-[(1E)-5,7-Difluoro-1-(3-(phenoxy)benzylidene)-2-methyl-1H-inden-3-yl]-acetic acid]	> 90%	
CC(C)OC(=O)C(C(=O)OC(C)C)=C1SC=CS1 [Mal, malotilate, reference compound]		reversed the fibrosis induced by CCl4
